Measured values taken from BindingDB's records for doi:10.1021/jm801327q (Cnrs, 2009).

Tests used:
[1] = target: 5-hydroxytryptamine receptor 4 (Homo sapiens, UniProt Q13639); experiment: Radioligand Binding Assay (Ki) and cAMP Accumulation Assay (EC50); settings: pH 7.4; 25 °C
Description: Nonspecific binding was determined with 10 uM GR113808. After incubation, the reaction was terminated by filtration through Whatman GF/B. Radioactivity was measured using a Beckman model LS6500C liquid scintillation counter. Binding data are expressed as a percentage of displacement for the screening of the library compounds. For selected compounds, Ki were analyzed by computer-assisted nonlinear regression analysis (Prism, Graphpad Software, San Diego, CA). EC50 values correspond to the concentration of agonists required to obtain half maximal stimulation of adenylyl cyclase. […] The data are the results of two or three independent determinations performed in triplicate.

[2] = target: Amyloid-beta precursor protein (Homo sapiens) (UniProt P05067); experiment: EC/IC50 was the effective concentration of agonist inhibiting the formation of A-beta fibrils to 50% of the control value. Three independent measurements were made for all cases.
Chain of Amyloid-beta precursor protein (Homo sapiens) (P05067 whole entry, looked up): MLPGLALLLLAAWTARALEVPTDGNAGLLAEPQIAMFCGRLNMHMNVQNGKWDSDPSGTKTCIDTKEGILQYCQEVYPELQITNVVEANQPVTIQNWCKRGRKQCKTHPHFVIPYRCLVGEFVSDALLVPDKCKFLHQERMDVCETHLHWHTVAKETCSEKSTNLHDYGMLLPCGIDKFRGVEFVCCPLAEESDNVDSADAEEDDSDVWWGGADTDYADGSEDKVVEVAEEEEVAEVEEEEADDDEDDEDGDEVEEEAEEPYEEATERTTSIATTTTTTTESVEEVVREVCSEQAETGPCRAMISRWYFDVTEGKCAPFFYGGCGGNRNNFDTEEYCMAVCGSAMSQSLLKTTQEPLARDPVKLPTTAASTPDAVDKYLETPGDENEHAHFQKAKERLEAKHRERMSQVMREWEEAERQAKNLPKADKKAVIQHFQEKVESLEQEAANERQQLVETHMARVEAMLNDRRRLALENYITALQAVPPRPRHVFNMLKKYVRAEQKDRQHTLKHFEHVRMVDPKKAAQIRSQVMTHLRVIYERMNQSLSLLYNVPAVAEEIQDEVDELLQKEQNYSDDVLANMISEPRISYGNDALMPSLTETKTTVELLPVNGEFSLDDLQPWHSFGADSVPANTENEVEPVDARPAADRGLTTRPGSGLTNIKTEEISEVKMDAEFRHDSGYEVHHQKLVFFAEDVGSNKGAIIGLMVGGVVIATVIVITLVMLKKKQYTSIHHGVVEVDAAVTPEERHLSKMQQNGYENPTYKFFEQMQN

Chain of 5-hydroxytryptamine receptor 4 (Q13639 whole entry): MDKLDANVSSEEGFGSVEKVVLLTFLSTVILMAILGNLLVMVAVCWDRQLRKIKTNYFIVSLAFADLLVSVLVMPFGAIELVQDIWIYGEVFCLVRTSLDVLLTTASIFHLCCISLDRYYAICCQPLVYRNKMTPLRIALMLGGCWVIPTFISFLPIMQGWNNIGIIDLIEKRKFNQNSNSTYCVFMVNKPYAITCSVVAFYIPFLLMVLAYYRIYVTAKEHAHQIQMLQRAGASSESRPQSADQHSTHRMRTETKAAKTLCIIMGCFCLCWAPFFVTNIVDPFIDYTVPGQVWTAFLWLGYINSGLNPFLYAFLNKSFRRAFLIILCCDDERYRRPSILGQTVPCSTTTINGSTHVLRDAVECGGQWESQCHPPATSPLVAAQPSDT

SMILES | EC50 [1] [nM] | Ki [1] [nM] | EC50 [2] [nM]
COc1cc(N)c(Cl)cc1C(=O)OCCN1CCC(NC(=O)CCCCCN2C(=O)c3cccc4c(N)ccc(c34)C2=O)CC1 [ML10302 scaffold, 9{a;y}] | 4 | 111 | –
COc1cc(N)c(Cl)cc1C(=O)OCCN1CCC(NC(=O)CCCNCCCc2ccc(CCCNCCCC(=O)NC3CCN(CCOC(=O)c4cc(Cl)c(N)cc4OC)CC3)cc2)CC1 [ML10302 scaffold, 14] | – | – | 9000
